Measured values from patent publication US9604931B2, “Nuclear receptor binding agents” (GTx, Inc., priority 2007, dated 2017).
Entries after “also recorded” stand apart in the source; their conditions may differ.

Legend:
[1] = molecular target: ERα ligand binding domain (Homo sapiens, UniProt P03372); experiment: Competitive [3H]-estradiol binding assay, ER-α (Example 21); settings: 100 nM of compound; read-out: Percent Inhibition of [3H]-Estradiol Binding to ER-α
Description: (§1) ER binding affinity was determined via one of the following methods:
(§2) Briefly, the incubation mixture was filtered through a high affinity protein binding filter, and washed several times to remove any unbound radioactivity. The filter plate was air dried and sealed on the bottom.
(§3) Nonspecific binding was subtracted from total binding to yield specific binding.

[2] = molecular target: ERβ ligand binding domain (Homo sapiens, UniProt Q92731); experiment: Competitive [3H]-estradiol binding assay, ER-β (Example 21)
Description: as §1, §2, §3

[3] = molecular target: ER-α (Rattus norvegicus (Rat), UniProt P06211); assay type: cell-based; settings: 100 nM compound compared to 1 nM estradiol
Description: COS or 293 cells were plated in DME without phenol red+10% cs FBS at 90,000 cells per well in 24 well plates, and were transfected with 0.25 μg of the vector “ERE-LUC”, where a firefly luciferase gene was driven by two estrogen responsive elements and 0.02 μg of the control CMV-LUC, Renilla where a luciferase gene was driven by a CMV promoter. […] All the receptors were cloned from rat tissue into the PCR3.1 vector backbone. Twenty four hours post transfection, cells were treated with compounds of this invention, estrogen, DHT, and other NRBAs or combinations thereof. Cells were harvested 48 hrs after transfection, and assayed for firefly and Renilla luciferase activity.

[4] = molecular target: ER-β (Rattus norvegicus (Rat), UniProt Q62986); experiment: ER-β transactivation (ERE-LUC) in COS or 293 cells; assay type: cell-based
[5] = test system: Cyp 3A and/or Cyp 2C9; experiment: Cyp inhibition (data not shown); assay type: in vitro ADME
[6] = test system: Carrageenan-induced paw edema; experiment: Carrageenan-induced paw edema; assay type: in vivo; settings: per-oral, 1 hr prior to Carrageenan; measured 4 hours post-Carrageenan
Description: FIG. 14 depicts the effect of 12b on the edema volume which was induced by Carrageenan (i.e. Carrageenan-induced […] as an acute inflammation model).
To determine the anti-inflammatory effects of ER-β NRBAs in vivo, animal paws were injected with carrageenan, which elicits an acute local inflammatory response.

[7] = test system: LNCaP prostate cancer cells; experiment: 3H thymidine incorporation, LNCaP cells; assay type: cell-based; settings: 6 days treatment
Description: (§4) The effects of treatment of an ER-β selective NRBA of this invention on cancer cell proliferation was examined using LNCaP prostate cancer cells and C-26 colon cancer cells. LNCaP or C-26 cells were plated in growth medium in 24 well and 6 well plates, respectively. LNCaP cells were treated for 6 days and C-26 cells were treated for 3 days at the indicated concentration. ^3H thymidine incorporation was measured at the end of treatment as an indicator of cell proliferation.

[8] = test system: C-26 colon cancer cells; experiment: 3H thymidine incorporation, C-26 cells; assay type: cell-based; settings: 3 days treatment
Description: as §4

[9] = test system: LNCaP cells and human prostate stromal cells xenograft; experiment: LNCaP-stromal cell xenograft tumor growth; assay type: in vivo, nude mice; settings: 30 mg/kg/day for 21 days
Description: Prostate tumor xenografts were established with LNCaP cells and human prostate stromal cells in nude mice to establish the in vivo anti-proliferative effects of these ER-β NRBAs. A 4:1 ratio (based on cell number) of LNCaP:stroma cells was injected subcutaneously in nude mice and allowed to grow until they attained 100 mm^3 in volume, as measured by calipers. […] Tumor volumes were measured twice a week and percent tumor volume calculated, after 10, 14 and 21 days.

[10] = test system: uterus; experiment: Uterotropic assay; settings: 10 mg/kg/day orally, 3 days
Description: Statistical differences among groups were evaluated by one-way ANOVA. Rats were treated for 3 consecutive days and then sacrificed 24 h after the last dose. The body of the uterus was cut just above its junction with the cervix and at the junction of the uterine horns with the ovaries. The uterus was weighed with and without intrauterine fluid. Statistical comparisons were made between the weights of empty uteri.

[11] = test system: Rat Aortic Smooth Muscle Cells (RASMC); experiment: RASMC cell proliferation assay (WST-1); assay type: cell-based; settings: 10 μM and 30 μM
Description: EC50 values were calculated using WinNonLin 5.0.1 using the inhibitory effect sigmoid Emax model.

ER-β, sequence (Q62986 whole entry): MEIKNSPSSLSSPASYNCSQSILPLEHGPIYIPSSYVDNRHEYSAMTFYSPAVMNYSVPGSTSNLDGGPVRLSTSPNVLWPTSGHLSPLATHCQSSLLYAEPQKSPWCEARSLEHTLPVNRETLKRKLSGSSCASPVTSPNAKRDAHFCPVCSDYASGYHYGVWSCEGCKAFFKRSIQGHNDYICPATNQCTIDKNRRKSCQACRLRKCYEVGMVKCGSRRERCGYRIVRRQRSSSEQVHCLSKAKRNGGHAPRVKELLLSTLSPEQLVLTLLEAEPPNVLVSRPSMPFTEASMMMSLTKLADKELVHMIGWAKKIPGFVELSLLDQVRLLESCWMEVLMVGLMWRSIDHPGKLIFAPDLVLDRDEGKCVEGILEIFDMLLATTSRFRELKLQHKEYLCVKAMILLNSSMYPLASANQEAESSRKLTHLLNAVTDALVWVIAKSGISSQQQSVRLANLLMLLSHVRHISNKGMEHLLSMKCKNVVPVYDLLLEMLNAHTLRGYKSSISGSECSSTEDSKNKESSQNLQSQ
ERβ ligand binding domain, sequence (Q92731 whole entry, looked up, the tested form may be a part): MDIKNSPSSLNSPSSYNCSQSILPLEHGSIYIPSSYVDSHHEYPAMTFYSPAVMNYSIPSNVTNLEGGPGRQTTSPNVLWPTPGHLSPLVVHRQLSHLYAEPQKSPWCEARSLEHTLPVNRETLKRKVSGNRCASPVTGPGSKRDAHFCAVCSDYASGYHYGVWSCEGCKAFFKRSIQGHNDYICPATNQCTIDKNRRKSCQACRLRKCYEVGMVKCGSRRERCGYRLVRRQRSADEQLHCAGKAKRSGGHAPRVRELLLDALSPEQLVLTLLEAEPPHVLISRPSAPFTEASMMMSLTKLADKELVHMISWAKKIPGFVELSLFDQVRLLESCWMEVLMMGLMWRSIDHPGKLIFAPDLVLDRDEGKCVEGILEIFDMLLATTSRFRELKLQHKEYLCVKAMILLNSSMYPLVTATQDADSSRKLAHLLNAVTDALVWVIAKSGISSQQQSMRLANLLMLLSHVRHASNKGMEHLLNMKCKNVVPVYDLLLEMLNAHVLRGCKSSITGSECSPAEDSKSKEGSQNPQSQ
ERα ligand binding domain, sequence (P03372 whole entry, looked up, the tested form may be a part): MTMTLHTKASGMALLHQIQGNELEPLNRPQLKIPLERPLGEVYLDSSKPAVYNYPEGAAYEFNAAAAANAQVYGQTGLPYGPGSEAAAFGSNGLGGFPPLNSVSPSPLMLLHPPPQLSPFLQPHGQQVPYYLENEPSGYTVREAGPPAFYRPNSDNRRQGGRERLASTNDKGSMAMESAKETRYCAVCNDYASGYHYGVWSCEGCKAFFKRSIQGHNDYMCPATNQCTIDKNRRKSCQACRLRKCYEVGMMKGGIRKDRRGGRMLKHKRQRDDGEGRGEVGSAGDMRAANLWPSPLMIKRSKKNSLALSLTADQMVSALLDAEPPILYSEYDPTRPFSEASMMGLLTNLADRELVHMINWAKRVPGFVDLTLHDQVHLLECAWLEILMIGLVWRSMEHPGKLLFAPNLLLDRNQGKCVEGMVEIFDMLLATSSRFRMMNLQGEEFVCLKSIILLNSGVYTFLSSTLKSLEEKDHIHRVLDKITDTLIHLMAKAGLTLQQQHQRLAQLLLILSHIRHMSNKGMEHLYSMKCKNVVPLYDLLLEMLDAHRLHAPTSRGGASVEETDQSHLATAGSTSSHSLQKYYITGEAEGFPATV

Row | Compound | inhibition at 0.1 µM [1] [%] | Ki Ratio (ER-α/ER-β) [2] | Ki ([2]; read-out: ER-β binding constant (Ki)) [µM] | inhibition at 0.1 µM ([2]; read-out: Percent Inhibition of [3H]-Estradiol Binding to ER-β) [%] | Estradiol activity at 100 nM of NRBA, ER-α [3] [%] | ER-β agonist activity [4] | activation at 0.1 µM ([4]; HEK293, 48 h, read-out: Estradiol activity at 100 nM of NRBA, ER-β, 100 nM compound compared to 1 nM estradiol) [%] | Inhibition of Cyp 3A and/or Cyp 2C9 [5] | Reduction in paw edema [6] [%] | Growth of LNCaP prostate cancer cells [7] | Growth of C-26 colon cancer cells [8] | Xenograft tumor growth [9] | Uterine weight / proliferation of uterus [10] | Toxicity to RASMC (cell numbers reduced compared to day 0) [11]
1 | O=c1c2ccc(O)cc2c(Br)cn1-c1ccc(O)cc1 [12b, 4-bromo-6-hydroxy-2-(4-hydroxyphenyl)-isoquinolin-1(2H)-one] | 0 | 20 | 0.049 | 53.6 | 31.2 | ER-β agonists; also recorded: ER-β agonist activity | 79 | exception | 53 | significantly inhibited | significantly inhibited | inhibited the growth of tumor significantly |  | 
2 | CC/C(=C(\c1ccccc1)c1ccc(OCCN(C)C)cc1)c1ccccc1 [Tamoxifen, reference compound] |  |  |  |  |  |  |  |  |  |  |  |  | stimulated the proliferation of uterus significantly | toxicity
